One assay has as its target human orexin-2 receptor (Homo sapiens (Human), UniProt O43614). The experiment in a line: FLIPR Ca2+ Flux Assay, orexin-2 receptor (hOX2R FLIPR). Type of assay: cell-based. The note with it: CHO cells expressing the human orexin-2 receptor; agonist 70 pM Ala-6,12 human orexin-A. An outline of the steps:
(§1)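 Steps: Fluo-4AM loading of CHO cells (rat OX1R or human OX2R) for 60 min at 37 °C; 5 min compound preincubation; addition of Ala-6,12 orexin-A at 70 pM final; 5 min fluorescence recording. Antagonist IC50 is derived from peak heights against the uninhibited agonist response.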
(A change in cytosolic calcium serves as a functional read-out for many receptors and channels.)

Assay [1] has as its target hOXIR (orexin-1 receptor) (Homo sapiens, UniProt O43613). The experiment in a line: FLIPR Ca2+ Flux Assay, orexin-1 receptor (hOXIR FLIPR). Conditions: CHO cells expressing the orexin-1 receptor (method text: rat; table head: hOXIR); agonist 70 pM Ala-6,12 human orexin-A. Type of assay: cell-based. An outline of the steps:
as §1

human orexin-2 receptor, sequence (O43614 whole entry): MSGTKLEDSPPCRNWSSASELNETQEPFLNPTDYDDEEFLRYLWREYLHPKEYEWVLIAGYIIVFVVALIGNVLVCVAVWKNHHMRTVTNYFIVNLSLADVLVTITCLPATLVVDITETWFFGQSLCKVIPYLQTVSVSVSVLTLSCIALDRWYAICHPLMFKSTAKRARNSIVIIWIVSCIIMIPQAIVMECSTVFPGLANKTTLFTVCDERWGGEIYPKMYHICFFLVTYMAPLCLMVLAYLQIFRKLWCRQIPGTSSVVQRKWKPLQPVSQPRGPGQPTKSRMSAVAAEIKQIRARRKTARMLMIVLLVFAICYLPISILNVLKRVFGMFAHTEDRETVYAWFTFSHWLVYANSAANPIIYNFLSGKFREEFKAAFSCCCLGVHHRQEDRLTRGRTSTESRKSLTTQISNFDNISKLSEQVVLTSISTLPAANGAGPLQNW

By IC50 is commonly meant the midpoint of a concentration-inhibition curve. Low values mean greater potency in that assay, high ones weaker potency in that assay. On to `C[C@@H]1CC[C@@H](n2cc(C(C)(C)O)cn2)CN1C(=O)c1cccnc1OCC(F)(F)F` [Example 94, 2-{1-[(3R,6R)-6-Methyl-1-{[2-(2,2,2-trifluoroethoxy)pyridin-3-yl]carbonyl}piperidin-3-yl]-1H-pyrazol-4-yl}propan-2-ol], for which the results for the IC50 (on human orexin-2 receptor; in assay [1]) were 37 nM and more than 10000 nM, respectively.

Turning to `C[C@@H]1CC[C@@H](n2cc(C(C)(C)O)cn2)CN1C(=O)c1nccnc1-n1cccn1` [Example 95, 2-{1-[(3R,6R)-6-Methyl-1-{[3-(1H-pyrazol-1-yl)pyrazin-2-yl]carbonyl}piperidin-3-yl]-1H-pyrazol-4-yl}propan-2-ol], the 50% inhibitory concentration (IC50) on human orexin-2 receptor was 271 nM; in assay [1] it was more than 10000 nM.

With `COc1ccc(C(=O)N2C[C@H](n3cc(C(C)(C)O)cn3)CC[C@H]2C)c(C2CC2)n1` [Example 96, 2-(1-{(3R,6R)-1-[(2-Cyclopropyl-6-methoxypyridin-3-yl)carbonyl]-6-methylpiperidin-3-yl}-1H-pyrazol-4-yl)propan-2-ol], the IC50 at human orexin-2 receptor is 1600 nM; in assay [1] it was more than 10000 nM.

On to `CC(C)Oc1ncccc1C(=O)N1C[C@H](n2cc(C(C)(C)O)cn2)CC[C@H]1C` [Example 97, 2-{1-[(3R,6R)-6-Methyl-1-{[2-(1-methylethoxy)pyridin-3-yl]carbonyl}piperidin-3-yl]-1H-pyrazol-4-yl}propan-2-ol], for which the figures for the IC50 (at human orexin-2 receptor; in assay [1]) were 240 nM and more than 10000 nM, respectively.

Turning to `C[C@@H]1CC[C@@H](n2cc(C(C)(C)O)cn2)CN1C(=O)c1cccnc1OCC(F)F` [Example 98, 2-{1-[(3R,6R)-1-{[2-(2,2-Difluoroethoxy)pyridin-3-yl]carbonyl}-6-methylpiperidin-3-yl]-1H-pyrazol-4-yl}propan-2-ol], the figures for the IC50 (at human orexin-2 receptor; in assay [1]) were 58.8 nM and more than 10000 nM, respectively.

As to `C[C@@H]1CC[C@@H](n2cc(C(C)(C)O)cn2)CN1C(=O)c1ccccc1CC(F)F` [Example 99, 2-{1-[(3R,6R)-1-{[2-(2,2-Difluoroethyl)phenyl]carbonyl}-6-methylpiperidin-3-yl]-1H-pyrazol-4-yl}propan-2-ol], the IC50 on human orexin-2 receptor was 38.4 nM; in assay [1], more than 10000 nM.

Turning to `COc1ccc(C(=O)N2C[C@H](n3cc(C(C)(C)O)cn3)CC[C@H]2C)c(C2CCC2)n1` [Example 100, 2-(1-{(3R,6R)-1-[(2-Cyclobutyl-6-methoxypyridin-3-yl)carbonyl]-6-methylpiperidin-3-yl}-1H-pyrazol-4-yl)propan-2-ol], the IC50 is 60.8 nM at human orexin-2 receptor and more than 10000 nM in assay [1].

Regarding `C[C@@H]1CC[C@@H](n2cc(C(C)(C)O)cn2)CN1C(=O)c1nccnc1-n1nccn1` [Example 101, 2-{1-[(3R,6R)-6-Methyl-1-{[3-(2H-1,2,3-triazol-2-yl)pyrazin-2-yl]carbonyl}piperidin-3-yl]-1H-pyrazol-4-yl}propan-2-ol], the values for the IC50 (at human orexin-2 receptor; in assay [1]) were 479 nM and more than 10000 nM, respectively.

`C[C@@H]1CC[C@@H](n2cc([C@@H](O)C(F)(F)F)cn2)CN1C(=O)c1ccccc1-n1nccn1` [Example 102, (1R)-2,2,2-Trifluoro-1-{1-[(3R,6R)-6-methyl-1-{[2-(2H-1,2,3-triazol-2-yl)phenyl]carbonyl}piperidin-3-yl]-1H-pyrazol-4-yl}ethanol]: the results for the IC50 (at human orexin-2 receptor; in assay [1]) were 124 nM and more than 10000 nM, respectively.

On to `C[C@@H]1CC[C@@H](n2cc([C@H](O)C(F)(F)F)cn2)CN1C(=O)c1ccccc1-n1nccn1` [Example 103, (1S)-2,2,2-Trifluoro-1-{1-[(3R,6R)-6-methyl-1-{[2-(2H-1,2,3-triazol-2-yl)phenyl]carbonyl}piperidin-3-yl]-1H-pyrazol-4-yl}ethanol], for which the IC50 is 102 nM at human orexin-2 receptor and more than 10000 nM in assay [1].

Take `C[C@@H]1CC[C@@H](n2cc(C(C)(O)C(F)(F)F)cn2)CN1C(=O)c1ccccc1-n1nccn1` (stereo partly drawn) [Example 104, 1,1,1-Trifluoro-2-{1-[(3R,6R)-6-methyl-1-{[2-(2H-1,2,3-triazol-2-yl)phenyl]carbonyl}piperidin-3-yl]-1H-pyrazol-4-yl}propan-2-ol]: the results for the IC50 (on human orexin-2 receptor; in assay [1]) were 13.4 nM and 2010 nM, respectively.

For the compound `C[C@@H]1CC[C@@H](n2cc([C@@](C)(O)C(F)(F)F)cn2)CN1C(=O)c1ccccc1-n1nccn1` [Example 105, (2R)-1,1,1-Trifluoro-2-{1-[(3R,6R)-6-methyl-1-{[2-(2H-1,2,3-triazol-2-yl)phenyl]carbonyl}piperidin-3-yl]-1H-pyrazol-4-yl}propan-2-ol], the concentration for half-maximal inhibition (IC50) at human orexin-2 receptor is 9.4 nM; in assay [1], 2730 nM.

Turning to `C[C@@H]1CC[C@@H](n2cc([C@](C)(O)C(F)(F)F)cn2)CN1C(=O)c1ccccc1-n1nccn1` [Example 106, (2S)-1,1,1-Trifluoro-2-{1-[(3R,6R)-6-methyl-1-{[2-(2H-1,2,3-triazol-2-yl)phenyl]carbonyl}piperidin-3-yl]-1H-pyrazol-4-yl}propan-2-ol], the IC50 came to 10.6 nM on human orexin-2 receptor and 2060 nM in assay [1].

Turning to `Cc1nn([C@@H]2CC[C@@H](C)N(C(=O)c3ccccc3-n3nccn3)C2)cc1C(C)(C)O` [Example 107, 2-{3-Methyl-1-[(3R,6R)-6-methyl-1-{[2-(2H-1,2,3-triazol-2-yl)phenyl]carbonyl}piperidin-3-yl]-1H-pyrazol-4-yl}propan-2-ol], the IC50 on human orexin-2 receptor stood at 13.8 nM; in assay [1], 339 nM.

As to `Cc1c(C(C)(C)O)cnn1[C@@H]1CC[C@@H](C)N(C(=O)c2ccccc2-n2nccn2)C1` [Example 108, 2-{5-Methyl-1-[(3R,6R)-6-methyl-1-{[2-(2H-1,2,3-triazol-2-yl)phenyl]carbonyl}piperidin-3-yl]-1H-pyrazol-4-yl}propan-2-ol], the figures for the IC50 (on human orexin-2 receptor; in assay [1]) were 73.2 nM and 3370 nM, respectively.

Values taken from patent US10010539B2, “Pyrazole, triazole and tetrazole orexin receptor antagonists” (MERCK SHARP & DOHME CORP., priority 2014, dated 2018).
